Reference: patent publication US6846640B2, “Time-resolved fluorescence assay for the detection of multimeric forms of A-beta 1-40” (Pharmacia & Upjohn Company, priority 2002, dated 2005)

Assays:
β amyloid = β amyloid (Homo sapiens, UniProt P05067); experiment: β-amyloid aggregation ELISA protocol (Howlett et al.); format: biochemical; settings: Aβ incubated overnight, 6E10 antibody
Procedure: For the β-amyloid aggregation ELISA protocol (Howlett et al., supra), 96 uL diluted β amyloid solution (51 μg/ml) is added to a 96-well polystyrene plate in the presence of and absence of 2 μL of an aggregation inhibitor test compound diluted in DMSO. The Aβ is incubated overnight to allow for aggregation and an aliquot transferred to another 96-well polystyrene plate, precoated with anti-Aβ antibody (6E10, Senetek, Napa, Calif.) overnight, washed, and blocked with Dulbecco's PBS/1% BSA solution. […] The secondary, biotinylated antibody was bound with 200 μL Eu^3+-streptavidin (100 ng/ml) in DELFIA assay buffer, the excess washed off, and the plate developed in DELFIA enhancement solution and read on a TRF plate reader as outlined above.

β-amyloid 1-40 = target: T1, β-amyloid 1-40 (Homo sapiens, UniProt P05067); experiment: TRF aggregation assay for β-amyloid polypeptide aggregation; format: biochemical; settings: 50 ug/ml β-amyloid, 24 uM test compound, 2% DMSO, 37° C. for 24 hrs
T1 construct: Beta-amyloid 1-40 (Aβ) and biotin-labeled β-amyloid 1-40 peptides were purchased from Biosource; purchased Biosource (Camarillo, Calif.)
T1 sequence (P05067 672-711 limits assumed): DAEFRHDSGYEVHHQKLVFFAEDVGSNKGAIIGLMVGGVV
Procedure: Beta-amyloid 1-40 (Aβ) and biotin-labeled β-amyloid 1-40 peptides were purchased from Biosource (Camarillo, Calif.). β-amyloid and biotinylated amyloid stock solutions, diluted in 0.1% acetic acid and corrected for 80% peptide content, were diluted to 83 μg/ml and 42 μg/ml, respectively, in reaction buffer (Dulbecco's PBS pH 7.4, 0.02% Tween 20). An equal mixture of the two β-amyloid products was then brought to a final concentration of 62.5 μg/ml total β-amyloid, giving a final 2:1 ratio of unbiotinylated to biotinylated Aβ polypeptide. When analyzing aggregation in the presence of test compound, 5 ul of diluted test compound (120 uM in 10% DMSO) was added to each well being analyzed in a 384-well polystyrene plate (Nunc). Test compounds are added over a range of concentrations. Twenty microliters of the β-amyloid reaction mixture was dispensed into each well of the 384 well plate, giving the final assay conditions as 24 uM test compound, 2% DMSO, and 50 ug/ml β-amyloid in a final volume of 25 uL. Plates were then sealed with foil sealers (Corning), and incubated at 37° C. for 24 hrs. […] Plates were washed with reaction buffer and 75 uL of DELFIA Enhancement solution (Wallac) was added to each well and the plates read on TRF capable plate reader (excitation at 337 run and emission at 620 nm).

Chain of β amyloid (P05067 672-711 limits assumed): as above

Molecule | inhibition of Aβ aggregation (β amyloid) [%] | prevents Aβ aggregation (β-amyloid 1-40) [%]
CO[C@H]1/C=C/O[C@@]2(C)Oc3c(C)c(O)c4c(O)c(c(/C=N/N5CCN(C)CC5)c(O)c4c3C2=O)NC(=O)/C(C)=C\C=C\[C@H](C)[C@H](O)[C@@H](C)[C@@H](O)[C@@H](C)[C@H](OC(C)=O)[C@@H]1C [rifampicin] | ~30 | –
QKLVFF [QKLVFF peptide] | – | 44
